The test system of assay [1] is LRRK2 mutant and ZFN-corrected NPCs. The experiment in a line: Mitochondrial calcein retention (MTP opening), HCI microscopy. It is filed as cell-based, human. Particulars: rotenone stress, corrected and LRRK2 mutant lines. How it is done: Cells grown on high glucose (HG) with or without 20 uM rotenone (R) or with radical generator TBHP (200 uM). Cells were analyzed by flow cytometry and mean CM-DCFDA fluorescence (Ex./Em. 495/529 nm) of live cells was then normalized to number of viable cells. […] Images: Depicted are representative image overlays showing mitochondrial fluorescence patterns indicative of mitochondrial membrane potential for the corrected (1.7) and uncorrected (1.13) NPCs. […] Mitochondria were loaded with calcein AM and cytosolic fluorescence was quenched by CoCl2. Graph: Relative amount of mitochondrial localized calcein fluorescence identified by Mitotracker™ Red CMXROS co-localization was normalized to cell number. Images: Representative image overlays showing mitochondrial fluorescence patterns indicative of mitochondrial calcein retention and mitochondrial integrity in corrected (1.7) and uncorrected (1.13) NPCs. FIG. 4D is a graph showing HCI analysis of caspase 3/7 activation in LRRK2 NPCs measured by fluorescence activated by caspase 3/7 mediated cleavage of a DEVD peptide-DNA dye conjugate. NPCs were incubated with the caspase substrate and the % of caspase substrate fluorescence positive cells (identified by nuclear Hoechst 33342 counterstain) was determined from 4 sites acquired at 10× magnification. […]

Assay [2] concerns LRRK2 G2019S mutant and ZFN-corrected NPCs. The assay is described as follows: ROS production by CM-H2DCFDA fluorescence, flow cytometry. It is filed as cell-based, human. To be noted: 200 μM for 60 min, normal growth conditions, both cell lines. The method, then: Cells were assayed for free radical production using CM-H2DCFDA that can be oxidized and rendered fluorescent by hydroxyl radicals produced by mitochondria. See, e.g., Petronilli et al. (1999) Biophysical journal 76:725-734; Nicholls (2009) Biochimica et biophysica acta 1787:1416-1424. Cytoplasmic fluorescence of this indicator dye in viable cells was assayed by flow cytometry to obtain a signature for cellular oxidative stress.
In particular, for stress experiments, NPCs were seeded 24 hours before being cultured under the following selective media conditions for an additional 18 hours: Standard NPC growth medium as above (HG=high glucose), HG plus 20 μM rotenone (HG+R) (SIGMA # R-8875) or an NPC growth medium formulation based on HG medium without glucose (NG, Life Techn. Neurobasal-A, Formula 05-0128DJ).
For flow cytometry, NPCs were seeded at 80% confluence on either 24-well (1-2×10^5 cells) or 48 well plates (5×10^4 cells) (NUNC #s 142475, 150687) on Geltrex (100 ug/ml protein) coated plates 24 hours before the experiment and then challenged as described above. In general two replicate wells were analyzed in each experimental run. After the respective treatment, cells were sampled by flow cytometry with an Accuri™ C6 cytometer with C-Sampler™ (BD Accuri) and subsequently analyzed using the Cflow® analysis software. […]
(Flow cytometry measures light scatter and fluorescence of single cells or particles in a stream.)

Turning to `C=C(C)[C@H]1Cc2c(ccc3c2O[C@@H]2COc4cc(OC)c(OC)cc4[C@@H]2C3=O)O1` [rotenone], in assay [1], the mitochondrial calcein loading entry is on record as “increased mitochondrial calcein loading”.

Take `CC(C)(C)OO` [TBHP]: the “ROS response to radical generator” value in assay [2] is listed as “increase of ROS”.
